Results as given in ChEMBL document CHEMBL3585271 (Bioorg Med Chem, 2015).
Blank lines part the entries; values can stand above or below the compound they belong to.

Experiments:
[1] = biological target: T1, Amine oxidase [flavin-containing] B (Homo sapiens, UniProt P27338)
T1 sequence (P27338 whole entry): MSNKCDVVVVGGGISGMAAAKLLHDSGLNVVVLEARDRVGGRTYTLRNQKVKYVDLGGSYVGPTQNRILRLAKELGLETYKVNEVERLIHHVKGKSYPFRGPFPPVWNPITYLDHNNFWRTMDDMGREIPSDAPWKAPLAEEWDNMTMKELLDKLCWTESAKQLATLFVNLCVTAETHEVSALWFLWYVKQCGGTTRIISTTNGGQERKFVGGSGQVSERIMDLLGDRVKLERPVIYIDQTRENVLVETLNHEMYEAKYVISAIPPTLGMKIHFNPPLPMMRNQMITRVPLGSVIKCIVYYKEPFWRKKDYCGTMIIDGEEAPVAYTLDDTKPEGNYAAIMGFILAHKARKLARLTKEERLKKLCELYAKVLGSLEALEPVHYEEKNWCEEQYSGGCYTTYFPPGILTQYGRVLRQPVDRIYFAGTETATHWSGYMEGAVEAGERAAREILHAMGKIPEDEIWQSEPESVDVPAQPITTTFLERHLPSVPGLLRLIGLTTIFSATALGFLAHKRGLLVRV
Description: Inhibition of human recombinant MAO-B using benzylamine as substrate incubated for 15 mins prior to substrate addition measured after 20 mins by fluorescence plate reader analysis

[2] = Antioxidant activity assessed as trolox equivalent of AAPH radical scavenging activity compound preincubated for 10 mins followed by AAPH challenge measured every min for 120 mins by ORAC-FL assay; format: physicochemical; settings: 2 h
[3] = biological target: Amyloid-beta precursor protein (Homo sapiens) (UniProt P05067); experiment: Inhibition of Cu2+-induced amyloid beta (1 to 42) aggregation (unknown origin) at 50 uM after 24 hrs by thioflavin T fluorescence assay (reference value: 100%); set-up: scale not given: the % may be the effect or the level left
Chain of Amyloid-beta precursor protein (Homo sapiens) (P05067 whole entry): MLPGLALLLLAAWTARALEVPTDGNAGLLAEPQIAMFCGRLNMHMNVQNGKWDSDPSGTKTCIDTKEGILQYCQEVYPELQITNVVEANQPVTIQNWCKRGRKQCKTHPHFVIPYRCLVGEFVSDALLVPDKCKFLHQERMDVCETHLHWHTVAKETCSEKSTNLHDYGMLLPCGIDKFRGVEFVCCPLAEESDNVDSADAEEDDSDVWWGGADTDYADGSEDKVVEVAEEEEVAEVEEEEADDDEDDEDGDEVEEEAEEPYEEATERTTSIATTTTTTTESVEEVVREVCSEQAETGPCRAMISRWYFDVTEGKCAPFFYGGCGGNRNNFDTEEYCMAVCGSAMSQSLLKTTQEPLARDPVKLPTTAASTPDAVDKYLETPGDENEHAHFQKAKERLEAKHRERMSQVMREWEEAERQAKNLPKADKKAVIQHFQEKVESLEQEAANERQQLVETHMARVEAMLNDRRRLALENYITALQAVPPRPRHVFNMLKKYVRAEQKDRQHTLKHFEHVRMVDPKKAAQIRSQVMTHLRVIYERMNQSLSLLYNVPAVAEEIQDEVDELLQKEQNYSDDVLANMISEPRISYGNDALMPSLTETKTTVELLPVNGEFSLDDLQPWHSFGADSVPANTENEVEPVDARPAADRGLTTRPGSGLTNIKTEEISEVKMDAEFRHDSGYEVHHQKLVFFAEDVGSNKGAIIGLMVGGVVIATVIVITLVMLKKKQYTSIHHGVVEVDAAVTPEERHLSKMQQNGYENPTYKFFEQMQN

[4] = biological target: T2, Amine oxidase [flavin-containing] A (Homo sapiens, UniProt P21397)
T2 sequence (P21397 whole entry): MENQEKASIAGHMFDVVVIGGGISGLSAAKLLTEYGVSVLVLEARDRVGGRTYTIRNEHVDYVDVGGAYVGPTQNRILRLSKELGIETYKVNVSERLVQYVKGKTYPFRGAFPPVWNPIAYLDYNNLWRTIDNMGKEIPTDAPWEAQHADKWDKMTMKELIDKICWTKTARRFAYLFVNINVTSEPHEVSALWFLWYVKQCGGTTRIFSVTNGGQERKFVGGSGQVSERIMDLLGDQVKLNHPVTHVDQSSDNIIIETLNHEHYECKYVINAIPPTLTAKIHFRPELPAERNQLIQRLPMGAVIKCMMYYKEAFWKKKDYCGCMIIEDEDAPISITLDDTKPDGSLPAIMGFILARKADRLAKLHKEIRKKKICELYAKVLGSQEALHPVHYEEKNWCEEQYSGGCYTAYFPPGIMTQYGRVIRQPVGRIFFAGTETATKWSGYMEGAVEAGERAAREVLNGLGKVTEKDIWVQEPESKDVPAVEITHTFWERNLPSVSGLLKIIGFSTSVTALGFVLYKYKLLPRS
Description: Inhibition of human recombinant MAO-A using p-tyramine as substrate incubated for 15 mins prior to substrate addition measured after 20 mins by fluorescence plate reader analysis

[5] = organism: Homo sapiens; experiment: Selectivity index, ratio of IC50 for human recombinant MAO-A to IC50 for human recombinant MAO-B
[6] = physchem; settings: PAMPA
Description: Permeability of the compound at 100 ug/mL after 10 hrs by PAMPA-BBB assay

[7] = Metal chelating activity of the compound assessed as Cu2+ complex formation at 40 uM after 30 mins by UV-vis spectrometry; format: physicochemical; settings: 0.5 h
[8] = Metal chelating activity of the compound assessed as Fe2+ complex formation at 40 uM after 30 mins by UV-vis spectrometry; format: physicochemical; settings: 0.5 h
[9] = Metal chelating activity of the compound assessed as Zn2+ complex formation at 40 uM after 30 mins by UV-vis spectrometry; format: physicochemical; settings: 0.5 h

SMILES: C#CCN(C)[C@H](C)Cc1ccc(NCc2ncccc2OC)cc1
IC50 [1]: 310 nM | Activity [2]: 1.49 µmol | Activity [3]: 69.1% | IC50 [4]: 3410 nM

SMILES: C#CCN(C)[C@H](C)Cc1ccc(NCc2cc(O)ccc2O)cc1
IC50 [1]: 430 nM | Ratio IC50 [5]: 2.4 | Activity [2]: 5.67 µmol | Activity [3]: 63.1% | IC50 [4]: 1030 nM | Papp at 10 h, 100 ug/mL [6]: 3.1 ×10⁻⁶ cm/s

SMILES: C#CCN(C)[C@H](C)Cc1ccc(NCc2cc(OC)ccc2O)cc1
IC50 [1]: 310 nM | Ratio IC50 [5]: 3.3 | Activity [2]: 3.81 µmol | IC50 [4]: 1020 nM | Papp at 10 h, 100 ug/mL [6]: 11.7 ×10⁻⁶ cm/s

SMILES: C#CCN(C)[C@H](C)Cc1ccc(NCc2cc(N(C)C)ccc2O)cc1
IC50 [1]: > 1000 nM | Activity [2]: 4.52 µmol | Papp at 10 h, 100 ug/mL [6]: 12.5 ×10⁻⁶ cm/s

Activity [3]: 68.2%
SMILES: CCN(CC)CCCC(C)Nc1ccnc2cc(Cl)ccc12 (stereo not given)

SMILES: C#CCN(C)[C@H](C)Cc1ccc(NCc2cc([N+](=O)[O-])ccc2O)cc1
IC50 [1]: 950 nM | Activity [2]: 2.1 µmol

SMILES: C#CCN(C)[C@H](C)Cc1ccc(NCc2cc(Cl)ccc2O)cc1
IC50 [1]: 310 nM | Ratio IC50 [5]: 2.2 | Activity [2]: 4.44 µmol | IC50 [4]: 700 nM

SMILES: C#CCN(C)[C@H](C)Cc1ccc(NCc2ncccc2C)cc1
IC50 [1]: 520 nM | Ratio IC50 [5]: 10.6 | Activity [2]: 1.78 µmol | IC50 [4]: 5530 nM | Papp at 10 h, 100 ug/mL [6]: 12.1 ×10⁻⁶ cm/s

SMILES: C#CCN(C)[C@H](C)Cc1ccc(NCc2cccc(OC)c2O)cc1
IC50 [1]: > 1000 nM | Activity [2]: 2.44 µmol

SMILES: C#CCN(C)[C@H](C)Cc1ccc(NCc2cc(F)ccc2O)cc1
IC50 [1]: > 1000 nM | Activity [2]: 2.26 µmol

SMILES: C#CCN(C)[C@H](C)Cc1ccc(NCc2ccccc2O)cc1
IC50 [1]: 210 nM | Ratio IC50 [5]: 25.6 | Activity [2]: 4.2 µmol | Activity [7]: Active | Activity [8]: Active | Activity [9]: Active | Activity [3]: 40.4% | IC50 [4]: 5370 nM | Papp at 10 h, 100 ug/mL [6]: 11.5 ×10⁻⁶ cm/s

SMILES: C#CCN(C)[C@H](C)Cc1ccc(NCc2ccc(OC)cc2O)cc1
IC50 [1]: > 1000 nM | Activity [2]: 4.35 µmol
